Here are results for 15 compounds from ChEMBL document CHEMBL5625220, “Discovery of anti-neuroinflammatory agents from 1,4,5,6-tetrahydrobenzo[2,3]oxepino[4,5-d]pyrimidin-2-amine derivatives by regulating microglia polarization” (Eur J Med Chem, 2023).

Data set [1] relates to BV-2. In words: Anti-inflammatory activity in mouse BV-2 cells assessed as inhibition of LPS-induced TNF-alpha production at 5 uM preincubated with LPS for 2 hrs followed by compound addition and measured after 24 hrs by ELISA relative to control. Format: functional. (In general: In an ELISA, binding on a coated surface is turned into a signal by an enzyme label.)
Data set [2] in a line: Cytotoxicity against mouse BV-2 cells assessed as survival rate at 5 uM incubated for 24 hrs by CCK8 assay relative to control. The format is toxicity, cell-based. The settings on record: read-out: Survival.
For data set [3], the system named is BV-2. Briefly: Anti-inflammatory activity in mouse BV-2 cells assessed as inhibition of LPS-induced TNF-alpha production at 2.5 ug/ml preincubated with LPS for 2 hrs followed by compound addition and measured after 24 hrs by ELISA relative to control. The format is functional.

For orientation: inhibition means the drop in the measured response relative to a control, in per cent. With `COc1cc(OC)c2c(c1)OCCC1=C2NC(N)=NC1c1c(F)cccc1C(F)(F)F` (centres undefined), the inhibition at 5 µM in data set [1] was found to be 65.7%. Further, the viability at 24 h, 5 µM in data set [2] was determined as 124%.

`COc1cc(OC)c2c(c1)OCC/C(=C\c1cc(C(F)(F)F)cc(C(F)(F)F)c1)C2=O`: the inhibition at 5 µM in data set [1] was 88.6%. The viability at 24 h, 5 µM in data set [2] worked out at 95%.

With `COc1cc(OC)c2c(c1)OCCC1=C2NC(N)=NC1c1ccccc1C(F)(F)F` (centres undefined), the inhibition at 5 µM in data set [1] was 70.2%. The viability at 24 h, 5 µM in data set [2] was 113%.

Regarding `COc1cc(OC)c2c(c1)OCCC1=C2NC(N)=NC1c1cc(F)cc(F)c1` (centres undefined), the inhibition at 5 µM in data set [1] came to 76.8%. In data set [2], the viability at 24 h, 5 µM was determined as 128%.

Consider `COc1cc(OC)c2c(c1)OCCC1=C2NC(N)=NC1c1cccc(C(F)(F)F)c1` (centres undefined), for which the inhibition at 5 µM in data set [1] stood at 82.6%. In addition, the viability at 24 h, 5 µM in data set [2] amounted to 109%.

As to `COc1cc(OC)c2c(c1)OCC/C(=C\c1c(F)cccc1F)C2=O`, in data set [1], the inhibition at 5 µM is 62.5%. Also, the viability at 24 h, 5 µM in data set [2] was determined as 146%.

Consider `COc1cc(OC)c2c(c1)OCCC1=C2NC(N)=NC1c1ccccc1F` (centres undefined), for which the inhibition at 5 µM in data set [1] stood at 73.4%. In addition, the viability at 24 h, 5 µM in data set [2] is 143%.

With `COc1cc(OC)c2c(c1)OCCC1=C2NC(N)=NC1c1c(F)cccc1F` (centres undefined), the inhibition at 5 µM in data set [1] turned out to be 67.4%. In data set [2], the viability at 24 h, 5 µM was determined as 126%.

As to `COc1cc(OC)c2c(c1)OCCC1=C2NC(N)=NC1c1cccc(F)c1C(F)(F)F` (centres undefined), the inhibition at 5 µM in data set [1] is 72.3%. Besides, in data set [2], the viability at 24 h, 5 µM came to 95.4%.

Consider `COc1cc(OC)c2c(c1)OCCC(C(O)c1cccc(C(F)(F)F)c1)C2=O` (centres undefined), for which the inhibition at 5 µM in data set [1] came out at 65.1%. Also, the viability at 24 h, 5 µM in data set [2] is 150%.

For `COc1cc(OC)c2c(c1)OCC/C(=C\c1ccc(C(F)(F)F)cc1)C2=O`, the inhibition at 5 µM in data set [1] was 65.8%. Besides, in data set [2], the viability at 24 h, 5 µM worked out at 145%.

On to `S=C(S)N1CCCC1` [PYRROLIDINE DITHIOCARBAMATE], for which, in data set [3], the inhibition at 2.5 µg/mL is 58.4%.

Regarding `COc1cncc(-c2nc(N)nc3c2CCc2ccc(F)cc2-3)c1`, the inhibition at 5 µM in data set [1] was 62.9%. In addition, the viability at 24 h, 5 µM in data set [2] is 99.3%.

As to `COc1cc(OC)c2c(c1)OCC/C(=C\c1cccc(F)c1C(F)(F)F)C2=O`, the inhibition at 5 µM in data set [1] was 68.3%. Moreover, the viability at 24 h, 5 µM in data set [2] came to 120%.

Regarding `COc1cc(OC)c2c(c1)OCC/C(=C\c1ccccc1C(F)(F)F)C2=O`, the inhibition at 5 µM in data set [1] was determined as 74.3%. Moreover, the viability at 24 h, 5 µM in data set [2] worked out at 142%.
